Source: patent US20080311126A1, “Antisense Oligonucleotides Directed to Ribonucleotide Reducatase R2 and Uses Thereof in Combination Therapies for the Treatment of Cancer” (Genesense Technologies, Inc, priority 2004, published 2008)
“Also recorded” adds a separate entry of the source.

Columns and labels:
Type in all cases: in vivo
[1] = test system: HT-29 human colon cancer cells; assay: HT-29 colon tumour xenograft in CD-1 nude mice
Procedure: HT-29 human colon cancer cells (3×10^6 cells in 100 μl of PBS) were subcutaneously injected into the right flank of 6-7 weeks old female CD-1 nude mice. After the size of tumour reached an approximate volume of 50 mm^3, 4 days post tumour cell injection, mitomycin C was administered by bolus infusion into the tail vein at days 4, 11 and 18 with a dose of 3.5 mg/kg/week. Antitumour effect of mitomycin C was further compared to that of SEQ ID NO:1 in combination with mitomycin C. SEQ ID NO:1 was administered by bolus infusion into the tail vein every day at 6 mg/kg and mitomycin C was administered intravenously at days 4, 11 and 18 with a dose of 3.5 mg/kg/week, one hour after the treatments with SEQ ID NO:1. Control animals received saline alone for the same period as SEQ ID NO:1. All treatments were stopped at day 22. A day after the last treatment, tumours were excised from the animals and their weights were measured.
HT-29 human colon cancer cells (3×10^6 cells in 100 μl of PBS) were subcutaneously injected into the right flank of 5-6 week old female CD-1 nude mice. After the size of tumour reached an approximate volume of 100 mm^3, 7 days post tumour cell injection, SEQ ID NO:1 was administered by bolus infusion into the tail vein every other day at 10 mg/kg. Control animals received saline alone for the same period. Antitumour effect of SEQ ID NO:1 was further compared to that of CPT-11 alone or that of SEQ ID NO:1 in combination with CPT-11. CPT-11 was administered intraperitoneally for 5 days in a row from […] with a dose of 20 mg/kg in 100 μl saline. All treatments were stopped at day 32. A day after the last treatment, tumours were excised from the animals and their weights were measured.
HT-29 human colon cancer cells (3×10^6 cells in 100 μl of PBS) were subcutaneously injected into the right flank of 6-7 week old female CD-1 nude mice. Treatments started at day 5 post tumour cell injection, SEQ ID NO:1 and 5-FU were administered as outlined below: • Groups and treatment: • Group 1. Saline treated group: saline:0.1 ml/2 days, i.v.; • Group 2. SEQ ID NO:1 treated group: 10 mg/kg/2 days in 100 μL saline, i.v.; • Group 3. 5-FU treated group:13 mg/kg/5 days/week (one week on and one week off), i.v.; • Group 4. SEQ ID NO:1 plus 5-FU treated group.
HT-29 human colon cancer cells (3×10^6 cells in 100 μl of PBS) were subcutaneously injected into the right flank of 5-6 week old female CD-1 nude mice. Treatments started 4 days post tumour cell injection, SEQ ID NO: 1 and Capecitabine were administered as outlined below: • Group and Treatment: • Group 1: treated with 0.2 ml vehicle solution for capecitabine, o.p.; • Group 2: treated with 0.1 ml saline, i.v.; • Group 3: treated with 359 mg/kg/day×5/w Capecitabine in 0.2 ml vehicle solution, o.p.; • Group 4: treated with 10 mg/kg/2 days SEQ ID NO:1 in 0.1 ml saline i.v.; • Group 5: treated with 10 mg/kg/2 days SEQ ID NO:1 in 0.1 ml saline, i.v. plus 359 mg/kg/day×5/w capecitabine in 0.2 ml vehicle solution, o.p.

[2] = test system: Hela S3 human cervix epitheloid carcinoma cells; assay: Hela S3 hydroxyurea resistant cervix carcinoma xenograft in SCID mice
Procedure: Hela S3 human cervix epitheloid carcinoma cells (5×10^5 cells in 100 μl of PBS) were subcutaneously injected into the right flank of 6-7 weeks old female SCID mice. Hela S3 is a hydroxyurea resistant cell line. After the size of tumour reached an approximate volume of 100 mm^3, 3 days post tumour cell injection, SEQ ID NO:1 was administered by bolus infusion into the tail vein every other day at 10 mg/kg 6 times. Control animals received saline alone for the same period. Antitumour effect of SEQ ID NO:1 was further compared to that of Hydroxyurea or Cisplatin alone or in combination. Hydroxyurea was administered intraperitoneally every day at a dose of 250 mg/kg for 10 days. Cisplatin was administered intravenously once a week for three weeks at a dose of 4 mg/kg. Antitumour activities were estimated by the inhibition of tumour volume, which was measured with caliper. Each point represents mean tumour volume calculated from 10 animals per experimental group. […] As expected, treatment with Hydroxyurea during the same period was ineffective against Hydroxyurea-resistant tumour.

[3] = test system: Caki-1 human renal carcinoma; assay: Caki-1 renal tumour xenograft in SCID mice, SEQ ID NO:1 and interferon alpha; settings: Example 4
Procedure: Cell Line: Human renal carcinoma cell line (Caki-1) was grown as monolayer culture in Minimum essential medium (α-MEM) supplemented with 10% fetal bovine serum (FEBS), 0.1 mM non-essential amino acid, 1.0 mM sodium pyruvate, 100 U/ml penicillin, 100 μg/ml streptomycin and 0.25 μg/ml amphotericin B and 2 mM L-alanyl-L-glutamine at 37° C. in an atmosphere of 5% CO2 in air. The tumour cells were routinely subcultured twice weekly by trypsin-EDTA treatment. The cells were harvested from subconfluent logarithmically growing culture by treatment with trypsin-EDTA and counted for tumour inoculation.
Tumour Inoculation: An acclimation period of at least 7 days was allowed between animal receipt and commencement of tumour inoculation. When the female SCID mice were 6-7 weeks of age (20-25 g), each mouse was subcutaneously (s.c.) injected with 5×10^6 Caki-1 human renal carcinoma cells in 0.1 ml of PBS at the right flank of the mice to induce tumour growth.
Dose-Preparation and Treatment: The dose for SEQ ID NO:1 was formulated using the following procedure. From a concentrated stock solution (usually prepared in ddH2O at a concentration of 50 mg/ml and kept at −80° C.), SEQ ID NO:1 was diluted with saline to achieve a final target concentration of 1 or 2.5 mg/ml on the first day of dosing. Enough SEQ ID NO:1 was diluted so that the compound could be administered by bolus infusion into the tail vein every other day for the duration of the experiment. Recombinant interferon alfa-2b (Intron A™) was utilized according to the dose and treatment schedules below. The treatments were started 7 days after the tumour cell inoculation when the tumour size reached an approximate volume of 125 mm^3. Each treatment group contained 10 tumour-bearing mice. Routes of administration are indicated as follows: intravenous (i.v.) and intratumoural (i:t.).
Groups and Treatments: The following treatment groups were evaluated: • 1. Saline treated group-1: saline 0.1 ml/mouse/48 hours, i.v., n=10 • 2. Saline treated group-2: saline 0.05 ml/mouse/5 days/week, i.t., n=10 • 3. […] Intron A 10^3 unit/5 days/week treated group: 10^3 unit Intron A in 0.05 ml saline, i.t., n=10 • 6. Intron A 10^5 unit/5 days/week treated group: 10^5 unit Intron A in 0.05 ml saline, i.t., n=10 • 7. SEQ ID NO:1 1 mg/kg Plus Intron A 10^3 treated group: “3+5”, n=10 • 8. SEQ ID NO:1 1 mg kg Plus Intron A 10^5 treated group: “3+6”, n=10 • 9. SEQ ID NO:1 2.5 mg/kg Plus Intron A […], n=10 • 10. SEQ ID NO:1 2.5 mg/kg Plus Intron A 10^5 treated group: “4+6”, n=10
Mice received 25 treatments with SEQ ID NO:1 and 30 treatments with Intron A. The dosing schedule for Intron A was: treatment with Intron A for 3 consecutive weeks, 1 week off, and treatment with Intron A again for another 3 consecutive weeks. The dosing schedule for SEQ ID NO:1 was treatment with SEQ ID NO:1 every other day for the duration of the experiment.
Endpoints: The effects of SEQ ID NO:1 and Intron A on tumour growth were determined. Tumour sizes were measured every week from day 7 after the tumour cell inoculation in two dimensions using a caliper, and the volume was expressed in mm^3 using the formula: V=0.5 a×b^2, where a and b are the long and short diameters of the tumour, respectively. Mean tumour volumes calculated from each measurement were then plotted in a standard graph to compare the anti-tumour efficacy to that of controls. A day after the last treatment, tumours were excised from the animals and their weights were measured.
A second independent in vivo study was conducted as described in Example 1 utilizing SCID mice (female, 6 weeks old) and Caki-1 (human renal carcinoma cell line) to test the efficacy of SEQ ID NO:1 in combination with IFN alpha Briefly, 5×10^6 Caki-1 human renal carcinoma cells in 0.1 ml of PBS were injected subcutaneously at the right flank of the mice to induce tumour growth. Treatments started on the seventh day after tumour cell injection. […]

[4] = test system: MDA-MB-231 human breast cancer cells; assay: MDA-MB-231 breast tumour xenograft in CD-1 nude mice
Procedure: MDA-MB-231 human breast cancer cells (1×10^7 cells in 100 μl of PBS) were subcutaneously injected into the right flank of 6-7 weeks old female CD-1 nude mice. After the size of tumour reached an approximate volume of 100 mm^3, 5 days post tumour cell injection, SEQ ID NO:1, or the scrambled control oligonucleotide (SEQ ID NO:3) were administered by bolus infusion into the tail vein every other day at 10 mg/kg. Control animals received saline alone for the same period. Antitumour effect of SEQ ID NO:1 was further compared to that of taxol or doxorubicin alone or in combination. Taxol was administered intravenously once a week at a dose of 10 mg/kg for three (FIG. 17A) or four weeks (FIG. 17C). Doxorubicin was administered intravenously once a week at a dose of 5 mg/kg for first three weeks (FIG. 17A) or for two weeks (FIG. 17C). All treatments were stopped at day 33 (FIG. 17A) or at day 26 (FIG. 17C), respectively. A day after the last treatment, tumours were excised from the animals and their weights were measured. […] In FIG. 17C, antitumour activities were estimated by the inhibition of tumour volume, which was measured with calipers. Each point represents mean tumour volume calculated from 10 animals per experimental group.

CO[C@@]12[C@H](COC(N)=O)C3=C(C(=O)C(C)=C(N)C3=O)N1C[C@@H]1N[C@@H]12 [Mitomycin C, reference compound]
antitumour effect (tumour weight) ([1]; Example 12.1, mitomycin C 3.5 mg/kg/week i.v., SEQ ID NO:1 6 mg/kg every day i.v.): significant delay of tumour growth
Tumour weight as % of saline control ([1]; HT-29 (colon), Mouse CD-1, Mitomycin C study): 15%

NC(=O)NO [Hydroxyurea (HU), Hydroxyurea, reference compound]
Tumour weight as % of saline control ([2]; Hela S3 (cervix), hydroxyurea resistance, SCID): 92%
antitumour effect (tumour volume) ([2]; SEQ ID NO:1 10 mg/kg 6 times, Hydroxyurea 250 mg/kg i.p. 10 days, Cisplatin 4 mg/kg i.v. weekly): ineffective

ACGCACTCAGCTAGTGACAC (listed as DNA, chemistry not given here) [SEQ ID NO:3, reference compound]
effect on the efficacy of Intron A ([3]; SEQ ID NO:3 2.5 mg/kg plus Intron A 10^5): did not improve the efficacy of Intron A
anti-tumour efficacy (tumour volume, tumour weight) ([3]; oligonucleotide 2.5 mg/kg every 2 days i.v., Intron A 10^5 unit 5 days/week i.t.): no efficacy as a monotherapy
antitumour effect (tumour weight, tumour volume) ([4]; oligonucleotide 10 mg/kg every other day i.v., taxol 10 mg/kg, doxorubicin 5 mg/kg i.v. once a week): no significant anti-tumour activity as a monotherapy; also recorded: does not cooperate with doxorubicin

COc1cccc2c1C(=O)c1c(O)c3c(c(O)c1C2=O)C[C@@](O)(C(=O)CO)C[C@@H]3O[C@H]1C[C@H](N)[C@H](O)[C@H](C)O1 [Doxorubicin]
Tumour weight as % of saline control ([4]; MDA-MB-231 (breast), Mouse CD-1): 41%
